Data reported in patent US20030138399A1, “Anti-inflammatory therapy for inflammatory mediated infection” (priority 1999, published 2003).
Where two headings read alike, the source gives them in different places.

Tests used:
[1] = tested on: HIV pNLlucΔBgl pseudotyped with M-tropic JRFL envelope; experiment: HIV replication (luciferase expression) in activated PBMCs, M-tropic pseudotyped virus; type: cell-based; settings: 4 days in culture
Description: (§1) The PBMCs comprise a heterogeneous population of CD4 and CD8 cells with chemokines and cytokines present in the medium. […] Replication incompetent HIV pNLlucΔBgl pseudotyped with either M-tropic JRFL or T-tropic LAI envelope was used for the infection. Luciferase expression was used to assess the degree of HIV replication after 4 days in culture. Medication treated cultures were compared with samples receiving no drug. Cells were analyzed by flow cytometry for cell death after 4 days by staining with 7-AAD.

[2] = tested on: HIV pNLlucΔBgl pseudotyped with T-tropic LAI envelope; experiment: HIV replication (luciferase expression) in activated PBMCs, T-tropic pseudotyped virus; type: cell-based; settings: 4 days in culture
Description: as §1

activated PBMCs = settings: 4 days
Description: as §1

[3] = tested on: HIV virus that expresses luciferase when replicated; experiment: FIG. 19: HIV replication in cultured infected cells, luciferase by luminometer; type: cell-based
Description: Cultured cells infected with HIV were treated with 5-ASA or AZT in the amounts indicated. Luciferase expression, which indicates the amount of HIV replication, was quantified using a luminometer. The data shown represent nine separate studies.
(§2) Using a culture of cells that are infected with an HIV virus that expresses luciferase when replicated, but without any treatment as a control, Asacol at the two lowest doses (30 and 300 micrograms) is able to inhibit HIV replication by approximately 20%. At the 3000 microgram dose, the amount of suppression is higher, but this is due, in part, to cellular toxicity of the drug at this dose (approximately 30% cell death vs. 13-15% cell death for 30 and 300 microgram doses; AZT produces approximately 16% cell death at a dose of 5 μg). […] While the anti-inflammatory activity of Asacol is not as potent at suppressing HIV replication as is AZT, the activity is nonetheless statistically significant.

[4] = tested on: cultured cells infected with HIV; experiment: FIG. 19 study: cell death (cellular toxicity of the drug); type: cell-based
Text: as §2

Nc1ccc(O)c(C(=O)O)c1 [5-ASA, 5-aminosalicylic acid]
% Change from untreated culture (luciferase expression), M-tropic HIV ([1]; 3 μM): 46.2% | % Change from untreated culture (luciferase expression), M-tropic HIV ([1]; 30 μM): 50.3% | % Change from untreated culture (luciferase expression), M-tropic HIV ([1]; 300 μM): 48.9% | % Change from untreated culture (luciferase expression), M-tropic HIV ([1]; 3000 μM, *P < .05): 67.6* % | % Change from untreated culture (luciferase expression), T-Tropic HIV ([2]; 2 μM): 3.2% | % Change from untreated culture (luciferase expression), T-Tropic HIV ([2]; 20 μM): 22.4% | % Change from untreated culture (luciferase expression), T-Tropic HIV ([2]; 200 μM): 26.0% | % death (activated PBMCs; 30 μM): 7.3% | % death (activated PBMCs; 300 μM): 9.4% | % death (activated PBMCs; 3000 μM): 13.3% | amount of suppression of HIV replication ([3]; 3000 microgram dose, compared with lower doses): higher | inhibition of HIV replication ([3]; two lowest doses (30 and 300 micrograms)): approximately 20% | cell death ([4]; 30 and 300 microgram doses): 13-15% | cell death ([4]; 3000 microgram dose): approximately 30%

Cc1cn([C@H]2C[C@H](N=[N+]=[N-])[C@@H](CO)O2)c(=O)[nH]c1=O [AZT, zidovudine]
% Change from untreated culture (luciferase expression), M-tropic HIV ([1]; 5 μM, *P < .05): 80.0* % | % Change from untreated culture (luciferase expression), T-Tropic HIV ([2]; 5 μM, *P < .05): 99.3* % | cell death ([4]; dose of 5 μg): approximately 16%
